Source: patent publication US5726177A, “Indole-derived arylpiperazines as ligands for 5HT1 -like, 5HT1B and 5HT1D receptors” (Pierre Fabre Medicament, priority 1993, dated 1998)
Structures can show the parent of a compound that is named as a salt. Where two headings read alike, the source gives them in different places.

Experiments:
human 5HT1Db receptor [1] = molecular target: T1, human 5HT1Db receptor (Homo sapiens, UniProt P28222); assay: Binding to cloned human 5HT1Db receptor
Method: (§1) Human 5HT1Da and 5HT1Db receptors were cloned according to the sequences published by M. Hamblin and M. Metcalf, Mol. Pharmacol., 40, 143 (1991) and Weinshenk et al., Proc. Natl. Acad. Sci., 89, 3630 (1992).
(§2) The transient transfection and the stable transfection of the genes of these receptors was carried out in Cos-7 and CHO-K1 cell lines by using an electroporator.
(§3) The binding of the derivatives of the present invention with human 5HT1Da, 5HT1Db and 5HT1A receptors was studied according to the method described by P. Pauwels and C. Palmier (Neuropharmacology, 33, 67, 1994).
(§4) The incubation media for these binding measurements comprise 0.4 ml of cell membrane preparation, 0.05 ml of a tritiated ligand [[3H]-SCT (final concentration: 2 nM) for the 5HT1Da and 5HT1Db receptors and [3H]-80H-DPAT (final concentration: 1 nM) for the 5HT1A receptor] and 0.05 ml of the molecule to be tested (final concentrations from 0.1 nM to 1000 nM) or 10 μM (final concentration) of serotonin (5HT1Da and 5HT1Db) or 1 μM (final concentration) of spiroxatrin (5HT1A ).

human 5HT1A receptor = molecular target: T2, human 5HT1A receptor (Homo sapiens, UniProt P08908); assay: Binding to human 5HT1A receptor (HeLa HA7 cell line)
T2 sequence (P08908 1-422): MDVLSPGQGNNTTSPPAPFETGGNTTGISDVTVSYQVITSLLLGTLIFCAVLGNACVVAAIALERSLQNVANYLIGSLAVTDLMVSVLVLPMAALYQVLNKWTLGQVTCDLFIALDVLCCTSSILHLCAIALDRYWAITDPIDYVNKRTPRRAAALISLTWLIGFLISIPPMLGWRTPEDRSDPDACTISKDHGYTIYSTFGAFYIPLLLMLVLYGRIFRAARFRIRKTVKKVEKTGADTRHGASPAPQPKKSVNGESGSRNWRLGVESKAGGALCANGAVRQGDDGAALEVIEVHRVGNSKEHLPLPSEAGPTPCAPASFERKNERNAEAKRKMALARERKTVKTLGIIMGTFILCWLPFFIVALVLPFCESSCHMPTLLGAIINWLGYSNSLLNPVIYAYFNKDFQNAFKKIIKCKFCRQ
Method: The HeLa HA7 cell line expressing the 5HT1A human receptor was obtained from Tulco (Duke Univ., Durham, N.C., USA) and cultured according to the method of Fargin et al., J. Biol. Chem., 264, 14848 (1989).
as §3, §4

human 5HT1Db receptor [2] = molecular target: T1, human 5HT1Db receptor; assay: cell-based
Method: as §1, §2
The inhibition of the formation of cyclic AMP (stimulated by forskolin) mediated by the human 5HT1Db receptor was studied in CHO-K1 cells transfected by the receptor according to the technique described previously for the 5HT1B receptor (P. Pauwels and C. Palmier, Neuropharmacology, 33, 67, 1994).

human 5HT1Da receptor = human 5HT1Da receptor (Homo sapiens, UniProt P28221); assay: Binding to cloned human 5HT1Da receptor
Chain of human 5HT1Da receptor (P28221 whole entry): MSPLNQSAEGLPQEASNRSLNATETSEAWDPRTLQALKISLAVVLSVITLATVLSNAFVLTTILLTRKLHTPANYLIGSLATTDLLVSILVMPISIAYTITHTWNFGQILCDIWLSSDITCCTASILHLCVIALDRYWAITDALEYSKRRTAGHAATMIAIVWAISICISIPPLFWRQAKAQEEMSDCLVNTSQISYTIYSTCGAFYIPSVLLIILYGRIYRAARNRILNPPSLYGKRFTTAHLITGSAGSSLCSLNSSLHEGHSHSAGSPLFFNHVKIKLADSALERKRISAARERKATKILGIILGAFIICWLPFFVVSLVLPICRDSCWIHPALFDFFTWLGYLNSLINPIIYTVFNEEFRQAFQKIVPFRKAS
Method: as §1, §2, §3, §4

[3] = human cloned receptor, [3H] ligand 2 nM, read-out: Ki 5HT1Db
[4] = HeLa HA7 cells, [3H]-DPAT ligand 1 nM, read-out: Ki 5HT1A
[5] = human 5HT1Db, CHO-K1 cells, read-out: EC50 (Inhibition of the 5HT1Db cyclase stimulated by forskolin)
[6] = human cloned receptor, [3H] ligand 2 nM, read-out: Ki 5HT1Da

T1 sequence (P28222 whole entry): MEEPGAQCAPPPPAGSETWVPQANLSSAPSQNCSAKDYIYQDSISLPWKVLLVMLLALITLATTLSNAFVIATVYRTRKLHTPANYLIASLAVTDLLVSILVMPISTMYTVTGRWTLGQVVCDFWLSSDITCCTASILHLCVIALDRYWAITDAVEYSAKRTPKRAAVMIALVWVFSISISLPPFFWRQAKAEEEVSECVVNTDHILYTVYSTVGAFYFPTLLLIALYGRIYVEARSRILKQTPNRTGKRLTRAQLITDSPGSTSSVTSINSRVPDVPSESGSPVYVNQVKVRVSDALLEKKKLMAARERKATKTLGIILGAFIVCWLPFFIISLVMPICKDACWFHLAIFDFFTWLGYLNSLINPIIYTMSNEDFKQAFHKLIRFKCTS

Structure (SMILES)	Ki (human 5HT1Db receptor [1]; [3]) [nM]	Ki (human 5HT1A receptor; [4]) [nM]	EC50 (human 5HT1Db receptor [2]; [5]) [nM]	Ki (human 5HT1Da receptor; [6]) [nM]	Ki (human 5HT1Db receptor [1]) [nM]	Ki (human 5HT1A receptor) [nM]	EC50 (human 5HT1Db receptor [2]) [nM]	Ki (human 5HT1Da receptor) [nM]
NCCc1c[nH]c2ccc(OCC(=O)N3CCN(c4ccc(NS(=O)(=O)c5ccc([N+](=O)[O-])cc5)cc4)CC3)cc12 [Example 26, N-[4-(4-{2-[3-(2-Aminoethyl)-1H-indol-5-yloxy]acetyl}piperazin-1-yl)phenyl]-4-nitrophenylsulfonamide hydrochloride]	0.5	16.5	6.5	0.25	–	–	–	–
NCCc1c[nH]c2ccc(OCC(=O)N3CCN(c4ccc(NC(=O)Oc5ccccc5)cc4)CC3)cc12 [Example 33, N-[4-(4-{2-[3-(2-Aminoethyl)-1H-indol-5-yloxy]acetyl}-piperazin-1-yl)phenyl]phenylcarbamate]	–	–	–	–	2	39	9	2.8
CS(=O)(=O)Nc1ccc(N2CCN(CCOc3ccc4[nH]cc(CCN)c4c3)CC2)cc1 [Example 41, N-[4-(4-{2-[3-(2-Aminoethyl)-1H-indol-5-yloxy]ethyl}piperazin-1-yl)phenyl]methanesulfonamide hydrochloride]	0.7	28	2.6	1.1	–	–	–	–
